Laboratory results reported in patent publication US20230105108A1, “COMPOUNDS FOR THE TREATMENT OF BACTERIAL INFECTIONS AND POTENTIATION OF ANTIBIOTICS” (GEORGIA STATE UNIVERSITY RESEARCH FOUNDATION, INC., priority 2019, published 2023).
Where a name gives a salt, the structure may show the parent alone. Read-outs that look alike come from different tables or passages of the source.

Legend:
Type in all cases: cell-based
E. coli (ATCC 25922) = experiment: MIC determination, sensitization fold and FIC index on E. coli; settings: for MIC of AB with MD-124: MD-124 concentration 5 μg/ml; for MIC: Escherichia coli; for Sensitization: compound up to 25 μM
Experimental: Bacteria culture and MICs determination: Gram-negative bacteria were cultured in Mueller Hinton II cation-adjusted broth. Gram-positive bacteria were cultured in LB broth. Mycobacterium smegmatis was cultured in Middlebrook 7H9 Broth. MICs of antibiotics itself were determined by performing two-fold serial dilutions of antibiotics. MICs of antibiotics in the presence of bacterial sensitizers were determined by performing two-fold serial dilutions of antibiotics with or without a constant concentration of bacterial sensitizers. The MICs tests were performed on 96-well plates with a final volume of 200 μl Mueller Hinton II cation-adjusted broth in each well. Each well was inoculated with 5×10^5 CFU/ml bacteria and was incubated for 24 h at 37° C. with continuous shaking of 200 rpm. The bacterial density was then determined by OD600. Bacterial growth %=OD600 of antibiotic treatment group/OD600 of antibiotic non-treatment group. MICs was determined as the concentrations that inhibit more than 90% of bacteria growth.
Sensitization fold determination and FIC index calculations: Sensitization fold=MIC of antibiotic only/MIC of antibiotic with bacterial sensitizer. […] Since the MICs were determined by performing two-fold serial dilutions of antibiotic, so the sensitization fold can is the times of 2.
FIC index between compound a and b was calculated according to the formula below: […]
FIC≤0.5: Synergy; FIC between 0.5 and 1: Additive; FIC between 1 and […]: no interaction; FIC >4: antagonism.
Bacteria strains (as indicated in Table 5B) were cultured with rifampicin at various concentrations in the presence or absence of 10 μM of the indicated compound for 20 h at 37° C. The MIC, sensitization, cytotoxicity, and MIC on mycobacteria were tested according to methods described herein. […] The sensitization activities of compounds on MRSA were tested using rifampicin. The sensitization activities of compounds on E. coli were tested using rifampicin.

[1] = Cytotoxicity in H9c2 cells (CCK-8); settings: rat, H9c2 cells; H9c2 cell line
Experimental: The cytotoxicity in H9c2 (ATCC®CRL-1446™) cells was also determined. The H9c2 cells were maintained in DMEM (Dulbecco's Modified Eagle's Medium) supplemented with 10% fetal bovine serum (MidSci; S01520HI) and 1% penicillin-streptomycin (Sigma-Aldrich; P4333) at 37° C. with 5% CO2. The H9c2 cells were seeded in 96-well plate one day before the experiment. Different concentrations of di-amidine compounds were added into the H9c2 cells. The cells were then incubated with the compounds for 24 hours at 37° C. with 5% CO2. The cell viability was tested by the CCK-8. Specifically, after 24 hour incubation, 10 μL CCK-8 was added to each well. After 3 hours incubation at 37° C., the absorbance at 450 nm was recorded by a plate reader.

B. subtilis = experiment: MIC determination and sensitization fold on B. subtilis; settings: for MIC: Bacillus subtilis, 24 h, compound alone, read-out: MIC; for sensitization fold with 5.5 μg/ml DB2560: B. subtilis towards the antibiotic
[2] = E. coli towards the antibiotic, MD-124 5 μg/ml
[3] = ATCC25922, 24 h, E. coli (wild type), antibiotic alone, read-out: MIC of AB only
[4] = ATCC25922, 24 h, E. coli, compound alone, read-out: MIC
[5] = E. coli, rifampicin, compound at 25 μM
[6] = B. subtilis, erythromycin, compound at 6 μM
[7] = B. subtilis, erythromycin, compound at 12 μM
[8] = E. coli, rifampicin, compound at 10 μM

Molecule | Sensitization fold (E. coli (ATCC 25922); [2]) [fold] | MIC of AB with MD-124 (E. coli (ATCC 25922); E. coli) [ng/mL] | MIC (E. coli (ATCC 25922); [3]) [ng/mL] | CC50 at 24 h [1] [µM] | Sensitization (E. coli (ATCC 25922); E. coli, rifampicin) | MIC (E. coli (ATCC 25922); [4]) [µM] | further results
CC[C@H]1OC(=O)[C@H](C)[C@@H](O[C@H]2C[C@@](C)(OC)[C@@H](O)[C@H](C)O2)[C@H](C)[C@@H](O[C@@H]2O[C@H](C)C[C@H](N(C)C)[C@H]2O)[C@](C)(O)C[C@@H](C)CN(C)[C@H](C)[C@@H](O)[C@]1(C)O [Azithromycin, reference compound] | 16 | 400 | 6200 |  |  |  | 
N[C@@H]1CCCCN(c2c(F)cc3c(=O)c(C(=O)O)cn(C4CC4)c3c2Cl)C1 [Besifloxacin, reference compound] | 8 | 12.5 | 100 |  |  |  | 
Cc1onc(-c2ccccc2Cl)c1C(=O)N[C@@H]1C(=O)N2[C@@H]1SC(C)(C)[C@@H]2C(=O)O [Cloxacillin, reference compound] | >4 | 75000 | > 300000 |  |  |  | 
N=C(N)c1ccc(OCOc2ccc(C(=N)N)cc2)cc1 [DB1824] |  |  |  | > 100 | No effect up to 25 μM | > 100 | Sensitization fold (B. subtilis; B. subtilis, erythromycin, compound at 12.5 μM): 2-fold at 12.5 μM,; MIC (B. subtilis; B. subtilis): 12.5 µM
N=C(N)c1ccc(OCCCCCCOc2ccc(C(=N)N)cc2)cc1 [DB2362] |  |  |  | 25 |  | 50 | Sensitization fold (E. coli (ATCC 25922); [5]): 8-fold at 25 μM;; Sensitization fold (B. subtilis; [6]): 4-fold at 6 μM
N=C(N)c1ccc(OCc2cccc(COc3ccc(C(=N)N)cc3)n2)cc1 [DB2447] |  |  |  | > 100 | No effect up to 25 μM | 100 | Sensitization fold (B. subtilis; B. subtilis, erythromycin, compound at 2 μM): No effect at 2 μM.
N=C(N)c1ccc(OCc2cccc(COc3ccc(C(N)=O)cc3)n2)cc1 [DB2449] |  |  |  | > 100 | No effect up to 25 μM | > 100 | Sensitization (B. subtilis; B. subtilis, erythromycin, compound up to 25 μM): No effect up to 25 μM; MIC (B. subtilis; B. subtilis): > 50 µM
Fc1c(COc2ccc(C3=NCCN3)cc2)cccc1COc1ccc(C2=NCCN2)cc1 [DB2510, 1,3-Bis {(4-(2-imidazolino))-phenoxymethyl}-2-fluorobenzene dihydrochloride] |  |  |  | 25 | No effect up to 25 μM | > 50 | 
c1cc(COc2ccc(C3=NCCN3)cc2)cc(COc2ccc(C3=NCCN3)cc2)c1 [DB2538, 1,3-Bis {(4-(2-imidazolino))-phenoxymethyl}-benzene dihydrochloride] |  |  |  | < 12.5 | No effect up to 25 μM | > 50 | Sensitization fold (B. subtilis; [7]): 4-fold at 12 μM; MIC (B. subtilis; B. subtilis): > 50 µM
Fc1cc(C2=NCCN2)ccc1OCc1cccc(COc2ccc(C3=NCCN3)cc2F)c1F [DB2554, 1,3-Bis {4-(2-imidazolino)-2-fluoro)-phenoxy methyl}-2-fluorobenzene dihydrochloride] |  |  |  | 50 | No effect up to 25 μM | > 50 | 
COc1cc(C2=NCCN2)ccc1OCc1cccc(COc2ccc(C3=NCCN3)cc2OC)c1F [DB2555, dihydrochloride] |  |  |  | 50 | No effect up to 25 μM | > 50 | 
CC[C@H]1OC(=O)[C@H](C)[C@@H](O[C@H]2C[C@@](C)(OC)[C@@H](O)[C@H](C)O2)[C@H](C)[C@@H](O[C@@H]2O[C@H](C)C[C@H](N(C)C)[C@H]2O)[C@](C)(O)C[C@@H](C)C(=O)[C@H](C)[C@@H](O)[C@]1(C)O [Erythromycin, reference compound] |  | 400 |  |  |  |  | MIC (E. coli (ATCC 25922); ATCC25922, read-out: MIC of erythromycin in the presence of 10 μg/ml MD-100, wild-type E. coli): 1600 ng/mL; MIC of erythromycin in the absence of DB2560 (B. subtilis; B. subtilis): 0.05 ng/mL; MIC of erythromycin in the presence of DB2560 (B. subtilis; B. subtilis): 0.0015 ng/mL
C[C@H]1COc2c(N3CCN(C)CC3)c(F)cc3c(=O)c(C(=O)O)cn1c23 [Levofloxacin, reference compound] | 8 | 6.2 | 50 |  |  |  | 
Cc1ccc(COc2ccc(C(=N)N)cc2)cc1COc1ccc(C(=N)N)cc1 [MD-119, 1,3-Bis {(4-amidino)-phenoxymethyl}-6-methylbenzene dihydrochloride] |  |  |  |  |  |  | Sensitization fold (E. coli (ATCC 25922); E. coli, rifampicin, compound at 12.5 μM): 4-fold at 12.5 μM.; Sensitization fold (E. coli (ATCC 25922); [5]): 32-fold at 25 μM,; MIC (E. coli (ATCC 25922); ATCC25922, 24 h): 100 µM; Sensitization fold (B. subtilis; [6]): 16-fold at 6 μM; Sensitization fold (B. subtilis; [7]): 32-fold at 12 μM,; MIC (B. subtilis; B. subtilis): 25 µM
N=C(N)c1ccc(COc2cc(OCc3ccc(C(=N)N)cc3F)cc(C(F)(F)F)c2)c(F)c1 [MD-127, dihydrochloride] |  |  |  |  |  | 100 | Sensitization fold (E. coli (ATCC 25922); [8]): 516-fold at 10 μM
N=C(N)c1ccc(CCc2cc(CCc3ccc(C(=N)N)cc3)cc(C(F)(F)F)c2)cc1 [MD-128, 1,3-Bis {(4-amidino)-phenethyl}-5-trifluoromethylbenzene dihydrochloride] |  |  |  |  |  |  | Sensitization fold (E. coli (ATCC 25922); [8]): 516-fold at 10 μM; MIC (E. coli (ATCC 25922); ATCC25922, 24 h): 100 µM
COc1c(N2C[C@@H]3CCCN[C@@H]3C2)c(F)cc2c(=O)c(C(=O)O)cn(C3CC3)c12 [Moxifloxacin, reference compound] | 8 | 6.2 | 50 |  |  |  | 
CO[C@H]1/C=C/O[C@@]2(C)Oc3c(C)c(O)c4c(O)c(c(/C=N/N5CCN(C6CCCC6)CC5)c(O)c4c3C2=O)NC(=O)/C(C)=C\C=C\[C@H](C)[C@H](O)[C@@H](C)[C@@H](O)[C@@H](C)[C@H](OC(C)=O)[C@@H]1C [Rifapentine, reference compound] | 32 | 800 | 25000 |  |  |  | 
CO[C@H]1/C=C/O[C@@]2(C)Oc3c(C)c(O)c4c(O)c(c5c(nc6cc(C)ccn65)c4c3C2=O)NC(=O)/C(C)=C\C=C\[C@H](C)[C@H](O)[C@@H](C)[C@@H](O)[C@@H](C)[C@H](OC(C)=O)[C@@H]1C [Rifaximin, reference compound] | 64 | 200 | 12500 |  |  |  | 
C[C@@H](O)[C@H]1C(=O)N2C(C(=O)O)=C(S[C@@H]3CN[C@H](C(=O)Nc4cccc(C(=O)O)c4)C3)[C@H](C)[C@H]12 [entrapenem, reference compound] |  |  |  |  |  |  | sensitization fold with 5.5 μg/ml DB2560 (B. subtilis): 4 fold
COc1cccc(OC)c1C(=O)N[C@@H]1C(=O)N2[C@@H]1SC(C)(C)[C@@H]2C(=O)O [methicillin, reference compound] |  |  |  |  |  |  | sensitization fold with 5.5 μg/ml DB2560 (B. subtilis): 4 fold
polymyxin B nonapeptide [PMBN, reference compound] |  |  |  |  |  |  | Sensitization fold (E. coli (ATCC 25922); E. coli, rifampicin, 20 μg/ml bacterial sensitizer): 16 fold
